Results taken from BindingDB's records for doi:10.1016/j.bmcl.2003.11.082 (Cubist Pharmaceuticals, 2004).

Tests used:
[1] = target: Phenylalanine--tRNA ligase (Staphylococcus aureus); assay: Compound was evaluated for the inhibitory activity against Staphylococcus aureus phenylalanyl-tRNA synthetase
[2] = target: Phenylalanine--tRNA ligase (Escherichia coli); assay: Compound was evaluated for the inhibitory activity against Escherichia coli phenylalanyl-tRNA synthetase

Compound: O=C(Nc1ccc(Cl)c(Cl)c1)[C@H]1[C@@H](C(=O)O)C2(O[C@H]1c1ccccc1)C(=O)c1ccccc1C2=O [4-(3,4-dichlorophenylcarbamoyl)-1',3'-dioxo-5-phenylspiro[tetrahydrofuran-2,2'-(2',3'-dihydro-1'H-indene)]-3-carboxylic acid]
- IC50 [1]: 33 µM
- IC50 [2]: 11 µM
